Data published in article PMC6643437, “MicroRNA Biogenesis is Enhanced by Liposome-Encapsulated Pin1 Inhibitor in Hepatocellular Carcinoma” (Theranostics, 2019).

Legend:
[1] = test system: XPO5; test: XPO5 subcellular distribution (confocal imaging, fractionation and Western blotting); format: cell-based, human; settings: 1 μM, SK-Hep1
Procedure: SK-Hep1 cells cultured on glass coverslips after different treatments were fixed in 4% PFA for 20 min, permeabilized with 0.5% Triton X-100 for 10 min, blocked with 5% BSA, and then incubated with primary anti-XPO5 antibody at 4 °C overnight, followed by incubation with Alexa Fluor dye- conjugated secondary antibodies for 1 h. Then the nuclei were stained with DAPI for 5 min at room temperature before mounting in Immu-Mout (Thermo fisher). Confocal fluorescence images were captured using Leica TCS SP5 II confocal spectral microscope.
For total protein preparation, cells were lysed on ice for 20 min in the RIPA lysis buffer (Beyotime) with protease inhibitor cocktail (Bimake), followed by centrifugation at 12000 rpm for 10 min at 4 °C. The resultant proteins in the supernatants were stored at -80 °C or directly subjected to SDS-PAGE. For nuclear-cytoplasmic fractionation of proteins, RLN buffer (5 mM Tris-HCl pH 7.4, 1.5 mM MgCl2, 140 mM NaCl, 0.5% NP-40) was freshly prepared when used. SK-Hep1 cells were harvested and gently resuspended in 200 µL RLN buffer with protease inhibitor cocktail, followed by centrifugation at 300 g for 2 minutes at 4 °C, the resultant supernatants are the cytoplasmic proteins. […] The signals were detected using ECL reagents (Life Technologies).

[2] = test system: SK-Hep1 tumors; test: SK-Hep1 xenograft in BALB/c nude mice; format: in vivo
Procedure: SK-Hep1 cells during the exponential-growth phase were collected and suspended in saline solution containing 50% Matrigel (Corning) at 5 × 10^7/mL. Then 100 μL of cells were injected into female BALB/c nude mice (5 weeks old) subcutaneously. Tumor growth was recorded every 3 days, and the tumor volume was calculated as ab^2/2 (a, long diameter; b, short diameter). All mice were randomized into 4 groups (8 mice per group) when the tumor volume reached 150-200 mm^3 and then were intravenously injected with normal saline, LP, free API-1 or API-LP at the 4 mg/kg dosage once every two days. At the end of the treatment, tumors were removed from mice and RNAs were extracted for miRNA detection.
Quantitative RT-PCR was used to assess miRNA expression levels. Total RNAs were extracted by TRIzol reagent (Invitrogen) from cells and transcribed by M-MLV reverse transcriptase (Invitrogen). Hairpin-it^TM real-time PCR miRNA kit for miR-122, let-7a, miR-29b and miR-146a were purchased from Shanghai GenePharma Co., Ltd (China). The miRNA levels were determined by Applied Biosystems StepOne Plus Real-Time PCR Systems using SYBR green master mix (Thermo fisher). Small endogenous nucleolar U6 RNA was used as internal control for miRNA normalization.

[3] = In vitro drug release by dialysis at pH 7.4; format: physicochemical; settings: PBS pH 7.4 with 0.5% Tween-80, 37 °C
Procedure: In vitro release of API-1 from API-LP was investigated in a simulated blood pH environment (pH 7.4). Briefly, 1 mL API-LP diluted ten times in advance was used to determine the initial API-1 concentration, and the remaining 9 mL was dialyzed in a dialysis bag (3500 Da) in 50 mL PBS (pH 7.4) containing 0.5% Tween-80. The experiment was performed in triplicate at 37°C with shaking at 100 rpm for one week. Samples were withdrawn at prescheduled sampling time points and replaced with the same volume of release buffer each time. The samples were quantified by high performance liquid chromatography (HPLC).

[4] = In vivo safety study, single 100 mg/kg i.v. dose in BALB/c nude mice
Procedure: (§1) Safety of the liposomes in vivo was evaluated by blood biochemical analysis, H&E staining and Masson staining of tissues. Briefly, following i.v. administration of normal saline, LP, API-1 or API-LP in the BALB/c nude mice, the peripheral blood samples were collected using heparin and centrifuged for serum biochemical analysis. The tissue samples were simultaneously excised and fixed in 4% PFA. Blood ALT, AST, TBIL, ALB, UREA and total protein analyses were performed using BioAssay Systems blood chemistry assay kits following the manufacturer's instructions. The tissue samples were embedded in paraffin, then cut into 5 μm thick paraffin sections and subsequently placed on glass slide. The slides were stained with H&E. The histopathological alterations were observed and imaged with a light microscope (OLYMPUS BX43).

[5] = test system: SK-Hep1 cells; test: MTT cell viability assay; format: cell-based, human; settings: 72 h
Procedure: MTT assay was conducted to estimate cell viability. Briefly, SK-Hep1 cells were seeded in a 96-well culture plate (2000 cells/well) and then treated with different concentrations of API-LP or free API-1 at 72 h in a 5% CO2 incubator for indicated time. At the end of incubation, 10 µL of MTT solution (5 mg/mL) was added into each well. After a 3 h incubation, DMSO (100 μL) was added to dissolve the resultant purple formazan crystals. The absorbance was measured at 570 nm on Thermo Scientific Varioskan Flash Multimode Reader.

[6] = Blood biochemistry and hepatic histopathology in tumor-bearing mice after multiple dosing; format: in vivo; settings: 4 mg/kg i.v. once every two days
Procedure: as §1
In order to facilitate the judgment of the positivity and degree of hepatic injury of mice, an ace hepatic injury mice model was built by treating mice with tetracycline by gavage at dose of 500 mg/kg. Mice were fasted after oral tetracycline for 30 h and then were executed. The serum ALT, AST, TBIL and hepatic histopathological examinations were performed to evaluate liver injuries.
The experimental tissues were fixed with formalin and embedded in paraffin. Sections with 5 μm in thickness were prepared for H&E staining, Masson staining and immunostaining with anti-RIP3 antibody (Abcam). The images were acquired on an Olympus digital camera attached to a light microscope.

[7] = test system: SK-Hep1 tumors; parameters: method as in PMID 29381806; settings: free API-1, mice, ref [15]; cited from earlier work
[8] = Pharmacokinetic study in BALB/c mice; format: in vivo; settings: 10 mg/kg i.v.
Procedure: The pharmacokinetic performance of API-LP was assessed in BALB/c mice. Following overnight fasting, six mice were randomized into two groups and received i.v. injection of free API-1 in 1 × PBS (pH 7.4) with 5% DMSO and API-LP in 1 × PBS (pH 7.4), respectively, at 10 mg/kg dose. At the prescheduled sampling time points, 20 μL blood samples were collected through caudal vein bleeding into heparinized centrifuge tube, followed by the centrifugation to obtain plasma, which was then stored at -80 °C until determination of the drug concentration.
For API-1 quantitation, plasma samples were thawed to room temperature. API-1 was extracted using acetonitrile and quantified by HPLC with QTRAP 5500 tandem mass spectrometry (LC/MS/ MS) system. The pharmacokinetic parameters based on the measured concentrations were calculated using GraphPad Prism (GraphPad Software).

[9] = 4 mg/kg i.v. once every two days, SK-Hep1 xenograft

API-1
nucleus-to-cytoplasm export of XPO5 [1]: restored the export of XPO5 to cytoplasm
body weight [2, 9]: did not impact body weight
tumor growth and tumor volume [2, 9]: significantly suppressed tumor growth and reduced tumor volume
biogenesis of mature miRNAs in tumor tissues ([2]; 4 mg/kg, SK-Hep1 tumor tissues, real-time PCR): significantly increased biogenesis of miR-122, let-7a, miR-29b and miR-146a
release in the first 12 h of dialysis [3]: 81.6%
haematological or liver toxicity (blood biochemistry) [4]: neither free API-1 nor API-LP had haematological or liver toxicity
inhibition of SK-Hep1 cell proliferation (MTT) [5]: inhibited SK-Hep1 cell proliferation in a dose-dependent manner
ALT Mean [6]: 39.67 U/L
AST Mean [6]: 133.67 U/L
TBIL Mean [6]: 1.70 µmol/L
efficacious dose to suppress HCC tumor growth in mice [7]: 5 mg/kg
API-1 plasma concentration at 24 h postdose [8]: 34.8 ng/mL
Clearance ([8]; n=3): 72.75 ± 3.93 mL/h
Half-life t1/2 ([8]; n=3): 6.31 ± 0.66 h
